Data reported in BindingDB's records for doi:10.1021/jm1001698 (Institute of Health Sciences, 2010).

Target: Bcl-xL (Homo sapiens)
Assay: Displacement of FITC-labeled Bak-BH3 peptide from Bcl-XL after 1 hr by fluorescence polarization assay

IC50: 1760 nM
Structure (SMILES): C=c1c(-c2c(O)c3c(C=N[C@@H]4C(=O)N5[C@@H]4SC(C)(C)[C@@H]5C(=O)O)c(O)c(O)c(=C(C)C)c3c(O)c2=C)c(O)c2c(C=N[C@@H]3C(=O)N4[C@@H]3SC(C)(C)[C@@H]4C(=O)O)c(O)c(O)c(=C(C)C)c2c1O [sodium(2S,2'S,5R,5'R,6R,6'R)-6,6'-((1E,1'E)-(6,6',7,7'-tetrahydroxy-5,5'-diisopropyl-3,3'-dimethyl-1,1',4,4'-tetraoxo-1,1',4,4'-tetrahydro-2,2'-binaphthyl-8,8'-diyl)bis(methan-1-yl-1-ylidene)bis(azan-1-yl-1-ylidene))bis(3,3-dimethyl-7-oxo-4-thia-1-azabicyclo[3.2.0]heptane-2-carboxylate)]
